Results on 26 compounds are retold here after patent US12275733B2, “Substituted pyrido[3,4-b]indoles for the treatment of cartilage disorders” (Sanofi, priority 2016, dated 2025).

In this assay the test system is ATDC5 cells. The assay is described as follows: Chondrogenesis activity assay in ATDC5 cells (collagen type II induction, immunofluorescence). As to conditions: Mus musculus; for EC50: collagen type II induction in ATDC5 cells, concentration reaching 50% of maximum induction; for Emax: maximum percent induction of collagen type II relative to internal reference compound at 10 μM, ATDC5 cells. The assay is classed as cell-based, mouse. As for the experimental part:
A) Chondrogenesis Activity Assay in ATDC5 Cells
The chondrogenic potential of the compounds of the invention was determined using clonal mouse chondrogenic ATDC5 cells (T. Atsumi et al., Cell Differ. Dev. 1990, 30, 109-116). ATDC5 cells are derived from mouse embryonic AT805 teratocarcinoma cells and are used frequently to study the multistep chondrogenic differentiation process from precursor cells into chondrocytes (C. Shukunami et al., Exp. Cell Res. 1998, 241, 1-11; H. Aklyami et al., J. Bone Miner. Res. 1996, 11, 22-28; H. Akiyami et al., Biochem. Biophys. Res. Commun. 1997, 235, 142-147; C. Shukunami et al., J. Cell Biol. 1996, 133, 457-468; C. Shukunami et al., J. Bone Miner. Res. 1997, 12, 1174-1188). Undifferentiated ATDC5 cells grow in vitro until confluence, showing a fibroblast-like morphology. In the presence of insulin, cells undergo transient condensation and form numerous nodular structures (cartilage nodules). The cartilagenous nature of these nodules was shown by Alcian Blue staining as evidence of the production of proteoglycan (aggrecan) and collagen type II expression (by expression analysis), both molecular markers of chondrocytes (C. Shukunami et al., J. Cell Biol. 1996, 133, 457-468).
Chondrogenic differentiation of ATDC5 cells into chondrocytes by the compounds of the invention was determined by measuring the induction of type II collagen protein as a marker of chondrocytes, a structural component of the extracellular matrix which constitutes more than 80% of cartilage mass (D. R. Eyre, Clin. Orthop. Relat. Res. 2004, 427 Suppl, S118-S122). ATDC5 cells were obtained from RIKEN and cultured as monolayer in basal culture medium (Dulbecco's Modified Eagle Medium/Nutrient Mixture F-12 (DMEM/F12, Invitrogen, #31331-093) supplemented with 10 μg/ml Transferrin (Roche, #10652 202001), 3×10E−8 M sodium seienite (Sigma, #S-5261) and 5% Fetal Calf Serum (FCS Gold, PAA, #A15-251)), at 37° C., and 5% CO2 in plastic flasks of 75 cm^2 or 300 cm^2 subconfluently for propagation. ATDC5 cells were harvested and resuspended in differentiation culture medium that consisted of basal culture medium complemented with 10 μg/ml insulin (Sigma, #19278), to initiate chondrogenic differentiation. For studying the effect of test compounds, the ATDC5 cells were plated in 96-well plates (3.0×10E4 cells per well in 200 μl of differentiation culture medium). Test compounds dissolved in DMSO were added to yield increasing compound concentrations, typically from 40 nM to 10 μM, and a final DMSO concentration of 0.1%. On each 96-well plate, control wells containing no test compound but the same concentration of DMSO, i.e. untreated cells, were included and used as reference for the determination of the effect of the test compounds on the cells, and wells containing an internal reference compound at a concentration of 10 μM were included and used as positive control and for standardizing the results. Cells in the wells were incubated for 4 days at 37° C., and 5% CO2, followed by quantification of intracellular collagen type II.
Quantification of collagen type II in the ATDC5-cells was done by immunofluorescence staining of collagen type II, and fluorescence intensity was measured using a cellular high content imaging system (ImageXpress, Molecular Device). For immunofluorescence staining of intracellular collagen, medium was removed after compound incubation and cells were fixed with 200 μl/well methanol/water (95%/5%). Cells were permeabilized in 200 μl/well phosphate-buffered saline (PBS) containing 0.2% Triton X100 for 15 min and, after removal of the solution, blocked for 30 min with 200 μl/well PBS/0.2% Triton X100 containing 1% bovine serum albumin (BSA) to avoid unspecific binding. After the blocking step, the solution was removed and collagen type II staining solution was added. […]

For orientation: EC50 means the concentration that produces a half-maximal response. High values mean lower potency in that assay, low ones higher potency in that assay. The term Emax denotes the greatest response seen or fitted, relative to the assay's reference. For `CCc1nccc2c1[nH]c1c(-c3ccc(Cl)nc3Cl)cc(Cl)cc12` [Example 105, 6-Chloro-8-(2,6-dichloro-pyridin-3-yl)-1-ethyl-9H-pyrido[3,4-b]indole], the EC50 amounted to 1 µM and the maximal response (Emax) was in the range of 50 to 80%.
`N#Cc1ccc(-c2cc(Cl)cc3c4ccncc4n(CC(F)(F)F)c23)cn1` [Example 60, 5-[6-Chloro-9-(2,2,2-trifluoro-ethyl)-9H-pyrido[3,4-b]indol-8-yl]-pyridine-2-carbonitrile] came in with an EC50 of 2.5 µM and an Emax of 20 to 50%.
On the same counts, the results for `Cc1nccc2c1[nH]c1c(-c3ccc(OCC4COCCO4)cc3)cc(Cl)cc12` (stereo not shown) [Example 40, 6-Chloro-8-[4-([1,4]dioxan-2-ylmethoxy)-phenyl]-1-methyl-9H-pyrido[3,4-b]indole] are 0.16 µM and over 80%.
`COc1cc(OC)c(-c2cc(Cl)cc3c2[nH]c2c(C)nccc23)c(OC)c1` [Example 175, 6-Chloro-1-methyl-8-(2,4,6-trimethoxy-phenyl)-9H-pyrido[3,4-b]indole] returned an EC50 of over 10 µM and an Emax of under 20%.
`Cc1nc(Cl)ccc1-c1cc(Cl)cc2c3ccncc3n(CC(F)(F)F)c12` [Example 83, 6-Chloro-8-(6-chloro-2-methyl-pyridin-3-yl)-9-(2,2,2-trifluoro-ethyl)-9H-pyrido[3,4-b]indole] yielded an EC50 of 2.1 µM and an Emax of 20 to 50%.
The compound `Clc1cc(-c2cccnc2)c2c(c1)c1ccncc1n2CC1CC1` [Example 280, 6-Chloro-9-cyclopropylmethyl-8-pyridin-3-yl-9H-pyrido[3,4-b]indole] registered an EC50 of over 10 µM and an Emax of under 20%.
Take `Cc1nccc2c1[nH]c1c(-c3ccnn3C)cc(Cl)cc12` [Example 227, 6-Chloro-1-methyl-8-(2-methyl-2H-pyrazol-3-yl)-9H-pyrido[3,4-b]indole]: the EC50 is 0.33 µM and the Emax was over 80%.
Regarding `CCn1c2c(-c3cnn(Cc4ccccc4)c3)cc(Br)cc2c2ccnc(C)c21` [Example 208, 8-(1-Benzyl-1H-pyrazol-4-yl)-6-bromo-9-ethyl-1-methyl-9H-pyrido[3,4-b]indole], the EC50 worked out at 1.9 µM and the Emax was over 80%.
In turn, `Cc1nccc2c1[nH]c1c(-c3ccc4c(c3)OC(C)C4)cc(Cl)cc12` (stereo not shown) [Example 196, 6-Chloro-1-methyl-8-(2-methyl-2,3-dihydro-benzofuran-6-yl)-9H-pyrido[3,4-b]indole] returned an EC50 of 0.8 µM and an Emax of 50 to 80%.
With `COc1ncc(-c2cc(Cl)cc3c2[nH]c2c(C)nccc23)cc1F` [Example 99, 6-Chloro-8-(5-fluoro-6-methoxy-pyridin-3-yl)-1-methyl-9H-pyrido[3,4-b]indole], the EC50 is over 10 µM and the Emax is under 20%.
Take `Cc1nccc2c1[nH]c1c(-c3ccc(Cl)nc3)cc(Cl)cc12` [Example 77, 6-Chloro-8-(6-chloro-pyridin-3-yl)-1-methyl-9H-pyrido[3,4-b]indole]: a half-maximal response (EC50) required 0.58 µM and the Emax is over 80%.
On the same counts, the results for `Cc1nccc2c1[nH]c1c(-c3ccc(OCc4ncc5ccccc5n4)cc3)cc(Cl)cc12` [Example 41, 6-Chloro-1-methyl-8-[4-(quinazolin-2-ylmethoxy)-phenyl]-9H-pyrido[3,4-b]indole] are 0.24 µM and 50 to 80%.
On the same counts, the results for `CCn1c2c(-c3ccnc(N4CCN(C)CC4)c3)cc(Cl)cc2c2ccnc(C)c21` [Example 219, 6-Chloro-9-ethyl-1-methyl-8-[2-(4-methyl-piperazin-1-yl)-pyridin-4-yl]-9H-pyrido[3,4-b]indole] are over 3.3 µM and under 20%.
Consider `COc1ccc(-c2cc(Cl)cc3c2[nH]c2c(C)nccc23)c(OC)c1OC` [Example 178, 6-Chloro-1-methyl-8-(2,3,4-trimethoxy-phenyl)-9H-pyrido[3,4-b]indole], for which the EC50 is over 10 µM and the Emax was 20 to 50%.
Consider `CCn1c2cnccc2c2cc(Cl)cc(-c3cccc(OC)c3)c21` [Example 146, 6-Chloro-9-ethyl-8-(3-methoxy-phenyl)-9H-pyrido[3,4-b]indole], for which the EC50 was determined as 0.041 µM and the Emax was under 20%.
In the same order, the values of `CN(C)c1ccc(-c2cc(Cl)cc3c4ccncc4n(CC(F)(F)F)c23)cn1` [Example 84, (5-[6-Chloro-9-(2,2,2-trifluoro-ethyl)-9H-pyrido[3,4-b]indol-8-yl]-pyridin-2-yl)-dimethyl-amine] are over 10 µM and 20 to 50%.
Compound `CCn1c2c(-c3ccc(CN4CCOCC4)cc3)cc(Cl)cc2c2ccnc(C)c21` [Example 30, 6-Chloro-9-ethyl-1-methyl-8-(4-morpholin-4-ylmethyl-phenyl)-9H-pyrido[3,4-b]indole] had an EC50 of 0.27 µM and an Emax of over 80%.
In turn, `FC(F)(F)Cn1c2cnccc2c2cc(Cl)cc(-c3cccnc3)c21` [Example 57, 6-Chloro-8-pyridin-3-yl-9-(2,2,2-trifluoro-ethyl)-9H-pyrido[3,4-b]indole] registered an EC50 of 1.6 µM and an Emax of under 20%.
For `CN1CCN(c2ccc(-c3cc(Cl)cc4c5ccncc5n(CC(F)(F)F)c34)cn2)CC1` [Example 87, 6-Chloro-8-[6-(4-methyl-piperazin-1-yl)-pyridin-3-yl]-9-(2,2,2-trifluoro-ethyl)-9H-pyrido[3,4-b]indole], the midpoint of the response, the EC50, lay at 1.5 µM and the Emax is 50 to 80%.
On to `CC(C)n1cc(-c2cc(Cl)cc3c4ccncc4n(CC(F)(F)F)c23)cn1` [Example 160, 6-Chloro-8-(1-isopropyl-1H-pyrazol-4-yl)-9-(2,2,2-trifluoro-ethyl)-9H-pyrido[3,4-b]indole], for which the half-maximal effective concentration (EC50) is over 10 µM and the Emax was under 20%.
As to `CCn1c2c(-c3cnn(CCO)c3)cc(Cl)cc2c2ccnc(C)c21` [Example 44, 2-[4-(6-Chloro-9-ethyl-1-methyl-9H-pyrido[3,4-b]indol-8-yl)-pyrazol-1-yl]-ethanol], the EC50 is 0.67 µM and the Emax is over 80%.
For `CCc1nccc2c1[nH]c1c(-c3ccc(OC)cc3)cc(Cl)cc12` [Example 153, 6-Chloro-1-ethyl-8-(4-methoxy-phenyl)-9H-pyrido[3,4-b]indole], the midpoint of the response, the EC50, lay at 4.5 µM and the Emax was 50 to 80%.
In the same order, the values of `Cc1nccc2c1[nH]c1c(-c3cccc(OCc4ncc5ccccc5n4)c3)cc(Cl)cc12` [Example 274, 6-Chloro-1-methyl-8-[3-(quinazolin-2-ylmethoxy)-phenyl]-9H-pyrido[3,4-b]indole] are over 3.3 µM and under 20%.
The compound `Cc1nccc2c1[nH]c1c(-c3ccc(OC4CCOC4)cc3)cc(Cl)cc12` (stereo not shown) [Example 197, 6-Chloro-1-methyl-8-[4-(tetrahydro-furan-3-yloxy)-phenyl]-9H-pyrido[3,4-b]indole] had an EC50 of 0.63 µM and an Emax of over 80%.
Consider `Cn1ccc(-c2cc(Cl)cc3c4ccncc4n(CC(F)(F)F)c23)c1` [Example 165, 6-Chloro-8-(1-methyl-1H-pyrrol-3-yl)-9-(2,2,2-trifluoro-ethyl)-9H-pyrido[3,4-b]indole], for which the EC50 was over 10 µM and the Emax is under 20%.
On the same counts, the results for `Cc1ccc(-c2cc(Cl)cc3c2[nH]c2c(C)nccc23)cc1` [Example 150, 6-Chloro-1-methyl-8-p-tolyl-9H-pyrido[3,4-b]indole] are 0.51 µM and over 80%.
